# Calls of active or inactive are those of the source.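 Rule for the calls: active = compounds whose mean EC50, the dose giving half the maximal reporter activation, is at or below a set limit; inactive = the rest.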
# Biological target: CHO-CHOP luciferase reporter, UPR activation, luminescence
# Assay: activators of PERK-eIF2a-CHOP UPR arm, confirmation, CHO-CHOP cells, luciferase luminescence (AID 489024);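 note: compounds added alone to reporter cells with no tunicamycin stress co-treatment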
row,SMILES,EC50
1,COc1ccc(/C=C/C(=O)c2ccc(C(=O)/C=C/c3ccc(OC)c(OC)c3)cc2)cc1OC,> 80 µM (inactive)
2,Oc1ccc(/C=N/Nc2cc(N3CCOCC3)nc(N3CCOCC3)n2)cc1O,> 80 µM (inactive)
3,Cc1[nH]c2ccccc2c1CN1CCC(Cc2ccccc2)CC1,11.1 µM
4,CCc1cccc(CC)c1NC(=O)/C(C#N)=C/c1ccccc1C(F)(F)F,> 80 µM (inactive)
5,CCOC(=O)/C(=C\c1ccc(Cl)cc1)c1nc2sc(C)c(C)c2c(=O)[nH]1,> 80 µM (inactive)
6,C/C(=N\NC(=O)c1ccccc1OCc1ccc(F)cc1)c1ccccn1,4.89 µM
7,CCOC(=O)c1cnc(Nc2nc3ccccc3o2)nc1CSC(=S)N1CCCCC1,1.3 µM
8,COc1ccc2[nH]cc(C(=O)CCl)c2c1,> 80 µM (inactive)
9,Cc1cccc(CSc2cccc3cccnc23)c1,7.72 µM
10,COc1ccc(-c2oc(NC(=O)CCl)c(C#N)c2-c2ccc(OC)cc2)cc1,12.9 µM
11,O=C(NC1CCCC1)C(c1ccc(Cl)cc1)N(Cc1ccc(F)cc1)C(=O)CCl (stereo not drawn),8.34 µM
12,Cc1ccc2nc(-c3ccc(O)c(O)c3)cn2c1,3.6 µM
13,Clc1ccc(-n2nnnc2Sc2ncnc3sccc23)cc1,> 80 µM (inactive)
14,C/C(=N\NC(=O)c1ccc(Cl)cc1)c1ccccn1,8.06 µM
15,COc1ccc(-c2cc(=O)oc3c(C)c(OC(=O)c4cccs4)ccc23)cc1,inactive
16,C/C(CC(C)(C)C1CCCCC1)=N\NC(N)=S,12 µM
17,CCn1c(-c2ccccc2)c(C(=O)CCl)c2ccccc21,8.47 µM
18,Cc1ccc(C)c2sc(N3CCN(C(=O)c4ccc([N+](=O)[O-])o4)CC3)nc12,18.9 µM
19,Cc1ccc(NN2C(=O)C=C(c3ccccc3)C2=O)cc1,14.5 µM
20,Oc1ccc(CN2CCN(c3ccccc3)CC2)c2cccnc12,inactive
21,c1ccc(-c2nc(N3CCCCCC3)c3ccccc3n2)nc1,inactive
22,Cc1cc(NC(=O)CCS(=O)(=O)c2nc(-c3ccccc3)cc(C(F)(F)F)n2)no1,7.4 µM

row,SMILES,EC50
1,O=C(CCl)c1ccc(Cc2ncc(C(F)(F)F)cc2Cl)s1,9.69 µM
2,CCOc1ccccc1-n1c(SCC(=O)Nc2ccc(CC)cc2)nc2n[nH]c(C)c2c1=N,7.22 µM
3,CSc1nnc(NC(=O)c2nc(S(=O)(=O)Cc3ccccc3F)ncc2Cl)s1,> 80 µM (inactive)
4,COc1cc(C(=O)Oc2c(CN3CCOCC3)cc(Cl)c3cccnc23)cc(OC)c1OC,inactive
5,O=[N+]([O-])c1ccc(N/N=C/c2cccc(O)c2O)c(S(=O)(=O)N2CCOCC2)c1,6.53 µM
6,C/C(=N\NC(=O)c1cc(Br)ccc1O)c1ccccn1,6.67 µM
7,CC(C)N=c1scc(-c2ccco2)n1/N=C/c1ccc(O)c(O)c1,1.1 µM
8,Cc1c(C#N)c(NC(=O)CCl)n(Cc2cccs2)c1C,> 80 µM (inactive)
9,O=C(/C=C/c1ccc([N+](=O)[O-])cc1)/C=C/c1ccco1,6.61 µM
10,CSc1nnc(NC(=O)c2nc(S(=O)(=O)Cc3ccccc3)ncc2Cl)s1,> 80 µM (inactive)
11,S=C1SCN(Cc2ccco2)CN1Cc1ccco1,11.4 µM
12,C/C(=N\NC(=O)C(c1ccccc1)c1ccccc1)c1ccccn1,16 µM
13,O=C1NC(=S)NC(=O)C1=Cc1ccc(Br)s1,> 80 µM (inactive)
14,COc1ccc(N=c2oc3c(OC)cccc3cc2C(=O)NCc2ccco2)c(OC)c1,inactive
15,Cc1cccc(Cn2cc(/C=C/[N+](=O)[O-])c3ccccc32)c1,7.81 µM
16,COc1ccc(Cn2c(SCc3ccc(C)cc3)nc3cc(OC)c(OC)cc3c2=N)cc1Cl,14 µM
17,Cc1ccc(S(=O)(=O)N(C(=O)c2ccncc2)c2ccc(OC(=O)c3ccncc3)c3ccccc23)c(C)c1,16.7 µM
18,CCc1ccc2nc(N(CCCN(C)C)C(=O)c3ccc(S(=O)(=O)N(C)C4CCCCC4)cc3)sc2c1,10.6 µM
19,CCOc1cc(/C=C2/C(=O)ON=C2C)ccc1OCc1ccccc1F,15.9 µM
20,O=C(/C=C/c1ccc(O)c(O)c1)OCCc1ccccc1,0.89 µM
21,CC1CCC/C=C/C(=O)c2c(O)cc(O)cc2CC(=O)O1 (stereo not drawn),> 80 µM (inactive)
22,CCOC(=O)c1cnc(Nc2nc3ccccc3o2)nc1CSC(=S)N(CC)CC,0.91 µM

row,SMILES,EC50
1,Oc1ccc(-c2csc(Nc3ccccn3)n2)cc1O,3.7 µM
2,C=CCN=c1scc(C)n1/N=C/c1ccc(O)c(O)c1,3.01 µM
3,Oc1ccc(/C=N/Nc2nc(N3CCCC3)nc(N3CCCC3)n2)cc1O,2.93 µM
4,CC(C)N1C(=O)/C(=C/C=C/c2ccco2)C(=O)N(Cc2ccco2)C1=O,8.46 µM
5,COc1cc(/C=C2\COC/C(=C\c3ccc(O)c(OC)c3)C2=O)ccc1O,6.34 µM
6,Cc1ccc(CN2CCN(/N=C/c3ccc(O)c(O)c3)CC2)cc1,3.64 µM
7,Cc1ccc(-c2nc(SCC(=O)Nc3cc(C)on3)c3c(=O)n(C)c(=O)n(C)c3n2)cc1,> 80 µM (inactive)
8,Oc1ccc(-c2cn3ccccc3n2)cc1O,inactive
9,O=C1C=CC(=O)N1c1ccc(N2CCCCC2)cc1,> 80 µM (inactive)
10,COc1ccc(/C=N/Nc2cc(C)nc(-n3nc(C)cc3C)n2)c(OC)c1,7.32 µM
11,COc1cc(/C=C(/C#N)c2nc3ccccc3[nH]2)ccc1OCC(=O)Nc1ccccc1C(C)C,8.27 µM
12,O=C(CCl)Nc1cc(S(=O)(=O)N2CCCCCC2)ccc1Cl,> 80 µM (inactive)
13,Cc1ccc2cccc(NS(=O)(=O)c3ccccc3)c2n1,3.53 µM
14,Cc1cc(C(=O)c2ccc(C(C)(C)C)cc2)c(NC(=O)CCl)s1,12.4 µM
15,COc1ccc(CCNC(=O)c2coc(=O)c(Br)c2)cc1,7.26 µM
16,O=C(COC(=O)c1ccccc1C(=O)c1ccc(Cl)c([N+](=O)[O-])c1)NC1CCCCCC1,> 80 µM (inactive)
17,CCCCNC1C(CC)C(CCC)C(C#N)(C#N)C1(C#N)C#N (stereo not drawn),> 80 µM (inactive)
18,Oc1ccc(-c2csc(-c3ccccc3)n2)cc1O,5.57 µM
19,COc1cccc2sc(N3CCN(c4nc5ccccc5s4)CC3)nc12,13.8 µM
20,CC(C)(C)C(=O)OCc1nc(-c2ccc(O)c(O)c2)cs1,1.38 µM
21,COc1ccc(C(c2c(C)[nH]n(C(N)=S)c2=O)C(C#N)C#N)cc1 (stereo not drawn),inactive
22,CN1C(=O)/C(=C/c2cccn2-c2ccc3ccccc3c2)C(=O)NC1=S,11.7 µM

row,SMILES,EC50
1,O=c1[nH]c(-c2ccc(-c3cccc(Cl)c3)o2)nc2ccccc12,12.9 µM
2,Cc1cccc(Nc2nc3c(S(=O)(=O)c4ccccc4)nnn3c3ccccc23)c1C,inactive
3,Cc1ccc2nc(-c3ccc(NC(=S)NC4CC(C)(C)NC(C)(C)C4)cc3)sc2c1,6.95 µM
4,S=C(Nc1ccccn1)c1ccccn1,10.4 µM
5,C/C(=N/NC(=O)c1ccc(C(C)(C)C)cc1)c1ccccn1,2.88 µM
6,CCCCC(CC)CN=C(N)NC(N)=NCCCCCCN=C(N)NC(N)=NCC(CC)CCCC (stereo not drawn),> 80 µM (inactive)
7,O=C(CCl)Nc1cccc(S(=O)(=O)NC2=NCCCCC2)c1,17.8 µM
8,CCOc1ccc(-c2nnc(SCC(=O)Nc3ccc4c(c3)c3ccccc3n4CC)n2N)cc1,12.6 µM
9,COc1cc(CNc2ccc3[nH]c(=O)[nH]c3c2)cc(Br)c1OCc1ccccc1F,> 80 µM (inactive)
10,CCC(=O)Nc1ccc(C(=O)Cn2ncc(Cl)c(Cl)c2=O)cc1,13.7 µM
11,O=C(C[C@H]1C[C@H](C(=O)N2CCCCC2)[C@@]2(CCc3ccccc3)c3[nH]c4ccc(Cl)cc4c3CCN2C1=O)NCCC1=CCCCC1,inactive
12,Cc1ccc2[nH]cc(C(=O)CCl)c2c1,7.64 µM
13,O=C(NCc1ccccc1Br)c1cccc2c1C(=O)c1ccc(-c3ccc(OC(F)(F)F)cc3)cc1S2(=O)=O,12.7 µM
14,N=c1c(-c2nc3ccccc3[nH]2)cc(C(=O)c2ccco2)nn1-c1ccccc1,15.2 µM
15,O=[N+]([O-])c1cc(O)c2ncccc2c1,13.3 µM
16,COc1cccc2sc(Nc3nc(C)c(C(C)=O)s3)nc12,14.7 µM
17,CCOC(=O)c1c(-c2ccc(-c3ccccc3)cc2)csc1NC(=O)CNCCN(C)C,7.71 µM
18,Clc1ccc(-c2ccc(/C=N/Nc3nncc(-c4ccccc4)n3)o2)cc1,15.6 µM
19,Cc1c(C#N)c(NC(=O)CCl)n(Cc2ccccc2)c1C,14.4 µM
20,O=[N+]([O-])c1ccc2nc(Cl)nc(-c3ccccc3)c2c1,12.5 µM
21,Cc1ccc(C)c(C(=O)Cn2ncc(Cl)c(Cl)c2=O)c1,10.8 µM
22,CC(C)c1nnc(NC(=O)CCS(=O)(=O)c2nc(-c3cccs3)cc(C(F)(F)F)n2)s1,13.5 µM

row,SMILES,EC50
1,COc1ccc(C2OC34CCCCC3C(C#N)(C#N)C2(C#N)C(=N)O4)cc1 (stereo not drawn),> 80 µM (inactive)
2,O=C(NCc1ccccc1Cl)c1cccc2c1C(=O)c1ccc(-c3ccc(OC(F)(F)F)cc3)cc1S2(=O)=O,> 80 µM (inactive)
3,O=C(CCl)Nc1cccc(CP(=O)(c2ccccc2)c2ccccc2)c1,> 80 µM (inactive)
4,COc1ccc(N=Nc2ccc(O)c3ncccc23)cc1,7.89 µM
5,O=C1NN(c2cccc(Br)c2)C(=O)/C1=C/c1cccs1,inactive
6,C[C@@H]1CN([C@H](C)CO)C(=O)c2cc(NC(=O)Nc3ccc(C(F)(F)F)cc3)ccc2O[C@H]1CN(C)Cc1ccc(Cl)c(Cl)c1,> 80 µM (inactive)
7,Cc1ccc(-c2nc(NC(=O)c3nn(C)cc3[N+](=O)[O-])sc2C)cc1C,6.33 µM
8,COc1ccc(-c2cc(C(F)F)n3ncc(C(=O)n4ccnc4C)c3n2)cc1,13.3 µM
9,COc1cc2nc(=S)n3[nH]c(CCn4nc(C)cc4C)nc3c2cc1OC,3.93 µM
10,C=C1C(=O)C=C[C@]2(C)C[C@@H]3OC(=O)[C@](C)(O)[C@H]3C[C@@H]12,12.7 µM
11,CCOc1cc(/C=N/NC(N)=S)cc(Br)c1OCc1ccccc1C,inactive
12,Cc1ccc(-c2nn(-c3ccccc3)cc2C=C2C(=O)CC(C)(C)CC2=O)cc1,13.2 µM
13,CN(C)C(=O)CSc1cccc2cccnc12,8.15 µM
14,COc1ccc(N=c2oc3ccc(OC)cc3cc2-c2nc3ccccc3[nH]2)cc1,11.7 µM
15,O=C1NC(=O)N(Cc2ccccc2Cl)C(=O)/C1=C/c1cccs1,15.9 µM
16,O=C(Nc1ccc(S(=O)(=O)N2CCCC2)cc1)c1ccc([N+](=O)[O-])o1,0.81 µM
17,O=C(NCCc1ccc(F)cc1)c1coc(=O)c(Br)c1,9.53 µM
18,Oc1ccc(CN2CCN(Cc3ccccc3)CC2)c2cccnc12,inactive
19,CCc1cc2c(=O)[nH]c(-c3ccccn3)nc2s1,2.61 µM
20,Cc1ccccc1S(=O)(=O)NC1OC(=O)C(Cl)=C1Cl (stereo not drawn),> 80 µM (inactive)
